Like-named read-outs stand apart in the source and are kept apart here.
Key:
[1] = target: T1, human recombinant Glo-I enzyme (rhGlo-I) (Homo sapiens, UniProt Q04760); design: method as in PMID 34264188; details: prior publication ref 87; read-out: IC50 against Glo-I; cited from earlier work
T1 construct: N-terminal Met and 6-His tag (N); purchased R&D Systems; host or cells: E. coli
T1 sequence (Q04760 2-184 limits assumed): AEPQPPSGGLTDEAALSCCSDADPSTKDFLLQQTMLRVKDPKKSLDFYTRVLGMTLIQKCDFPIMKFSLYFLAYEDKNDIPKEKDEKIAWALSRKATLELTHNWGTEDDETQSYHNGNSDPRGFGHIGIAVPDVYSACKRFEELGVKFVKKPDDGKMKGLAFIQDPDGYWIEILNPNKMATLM

[2] = test system: A549 lung cancer cell line; assay: SRB cytotoxicity assay, A549; format: cell-based; details: Homo sapiens, 72 h incubation, n = 12, read-out: Cytotoxicity (as of %Control) IC50 value A549 lung malignancy
Experimental: (§1) The cancer cell lines were cultured in DMEM supplemented with 10% FBS (Bio Whittaker, Verviers, Belgium), HEPES Buffer (10 mM), gentamicin (50 µg/mL), L-glutamine (100 μg/mL), streptomycin ([…]), penicillin (100 µg/mL), and 4-(2-hydroxyethyl)-1-piperazineethanesulfonic acid (HEPES) Buffer (Sigma, St. Luis, MO, USA). The Sulforhodamine B used was obtained from Santa Cruz Biotechnology, Inc. in Texas, USA. […] Periodontal ligament fibroblasts (PDL) were utilized to assess specific cytotoxicity. Cancer cell lines that have survived offer several benefits. They provide a consistent and uninterrupted source of cells, so bypassing any ethical concerns related to the use of human tissue. Additionally, they are cost-effective. The cytotoxicity levels were assessed using the Sulforhodamine B (SRB) colorimetric assay, provided by Santa Cruz Biotechnology, Inc. in Texas, USA. The Spectro Scan 80D UV-VIS spectrophotometer, manufactured by Sedico Ltd. in Nicosia, Cyprus, was employed for this cytotoxicity screening. The cells were co-incubated with substances or a reference agent at various doses ranging from 5 to 200 μg/mL. […] The reduction in cell viability was analyzed by plotting Dose-response curves and expressing the data as a percentage of the control optical density. The IC50 values were obtained using regression analysis.

[3] = test system: A375 human skin cancer cell line; assay: SRB cytotoxicity assay, A375; format: cell-based; details: A-375, 72 h incubation, n = 12, read-out: Cytotoxicity (as of %Control) IC50 value A375 skin melanoma
Experimental: as §1

[4] = test system: HT-29 colorectal cancer cell line; assay: SRB cytotoxicity assay, HT29; format: cell-based; details: Homo sapiens, 72 h incubation, n = 12, read-out: Cytotoxicity (as of %Control) IC50 value HT29
Experimental: as §1

[5] = test system: PANC1 pancreatic cell line; assay: SRB cytotoxicity assay, PANC1; format: cell-based; details: Homo sapiens, PANC-1, 72 h incubation, n = 12, read-out: Cytotoxicity (as of %Control) IC50 value PANC1
Experimental: as §1

[6] = test system: CACO2 colorectal cancer cell line; assay: SRB cytotoxicity assay, CACO2; format: cell-based; details: Homo sapiens, Caco-2, 72 h incubation, n = 12, read-out: Cytotoxicity (as of %Control) IC50 value CACO2
Experimental: as §1

[7] = test system: HeLa uterine cervix adenocarcinoma cell line; assay: SRB cytotoxicity assay, HeLa; format: cell-based; details: Homo sapiens, 72 h incubation, n = 12, read-out: Cytotoxicity (as of %Control) IC50 value Hela cervix malignancy
Experimental: as §1

[8] = test system: Breast cancer cell line MCF7; assay: SRB cytotoxicity assay, MCF7; format: cell-based; details: Homo sapiens, 72 h incubation, n = 12, read-out: Cytotoxicity (as of %Control) IC50 value MCF7 mammary malignancy
Experimental: as §1

[9] = test system: Human PC3 prostate cancer cell line; assay: SRB cytotoxicity assay, PC3; format: cell-based; details: 72 h incubation, n = 12, read-out: Cytotoxicity (as of %Control) IC50 value PC3 prostate malignancy
Experimental: as §1

[10] = test system: SW480 colorectal cancer cell line; assay: SRB cytotoxicity assay, SW480; format: cell-based; details: Homo sapiens, 72 h incubation, n = 12, read-out: Cytotoxicity (as of %Control) IC50 value SW480
Experimental: as §1

[11] = SRB cytotoxicity assay, normal PDL fibroblasts; format: cell-based; details: normal periodontal ligament (PDL) fibroblasts, 72 h incubation, 0.1–200 µM range, read-out: Cytotoxicity (as of %Control) IC50 value PDL fibroblasts
Experimental: as §1

[12] = test system: LPS-primed RAW 264.7 murine macrophages (nitrite / iNOS); assay: Anti-inflammatory (nitrite) determination in LPS-primed macrophages; format: cell-based; details: Mus musculus
Experimental: The RAW 264.7 mouse macrophage cell line (ATCC® TIB-71) was cultivated in high glucose DMEM with 10% foetal bovine serum (FBS), 100 U/mL penicillin, 100 μg/mL streptomycin, and 100 μg/mL L-glutamate. The cells were incubated at 37°C in a humidified environment with 95% air and 5% CO2. Confluent macrophages (2 x 10^5/well) were cultured with lipopolysaccharide (LPS; 20 μg/mL; Sigma, St. Luis, MO, USA) and indomethacin (25–200 μg/mL) as the positive control, along with various concentrations (5–200 μg/mL) of treatment compounds. The cells were incubated for 24 hours. 100 μL of Griess reagent were combined with 100 μL portions of cell culture medium and left to incubate at room temperature for 10 minutes. The absorbance at a wavelength of 550 nm was measured using a microplate reader, namely the Spectro Scan 80D UV-VIS spectrophotometer manufactured by Sedico Ltd. in Nicosia, Cyprus. The nitrite concentration was assessed by comparing it to a standard curve of sodium nitrite. A cytotoxicity protocol using SRB was conducted to assess the impact of the test substances under study on RAW 264.7 viability.

[13] = test system: HCT116 colorectal cancer cell line; assay: SRB cytotoxicity assay, HCT116; format: cell-based; details: Homo sapiens, HCT-116, 72 h incubation, n = 12, read-out: Cytotoxicity (as of %Control) IC50 value HCT116
Experimental: as §1

[14] = test system: SW620 colorectal cancer cell line; assay: SRB cytotoxicity assay, SW620; format: cell-based; details: Homo sapiens, SW-620, 72 h incubation, n = 12, read-out: Cytotoxicity (as of %Control) IC50 value SW620
Experimental: as §1

[15] = DPPH free radical scavenger assay; details: DPPH radical scavenging; n = 12
Text: This approach relies on the reduction of the radicals, which causes a change in colour from oxidized purple to reduced yellow. Primarily, Diphenyl-2-picryl-hydrazyl (DPPH) is reduced in a solution of methanol (MeOH) when a chemical that donates hydrogen is present. This reduction is due to the creation of the non-radical form DPPH-H. The alteration in colour can be precisely assessed by employing a spectrophotometer within the wavelength range of 515–520 nm. Unlike other assays for radical scavenging, the DPPH radical is stable and yields consistent spectroscopic data. A 0.2 mM DPPH solution was diluted with MeOH and then combined with treatment compounds and ascorbic acid in a 1:1 concentration ratio using a 96-well plate. […] The solution was then incubated for one hour, isolated from light. Subsequently, the alteration in absorbance at a wavelength of 517 nm was quantified using a microplate reader manufactured by Bio-Tek Instrument in the United States. Ascorbic acid served as a strong and traditional benchmark for comparing the effectiveness of radical scavenging agents. The DPPH radical scavenging activity inhibition was calculated using the following equation, where A denotes photometric absorbance: The formula to calculate the percentage difference between a control and a sample is: (A control – A sample)/ A control x 100% [71, 72].

[16] = test system: T47D breast cancer cell line; assay: SRB cytotoxicity assay, T47D; format: cell-based; details: Homo sapiens, 72 h incubation, n = 12, read-out: Cytotoxicity (as of %Control) IC50 value T47D mammary malignancy
Experimental: as §1

Row | Compound | IC50 [1] [nM] | IC50 [2] [µM] | IC50 [3] [µM] | IC50 [4] [µM] | IC50 [5] [µM] | IC50 [6] [µM] | IC50 [7] [µM] | IC50 [8] [µM] | IC50 [9] [µM] | IC50 [10] [µM] | IC50 at 72 h [11] [µM] | IC50 ([12]; RAW264.7, 24 h, read-out: iNOS- IC50 value) [nM] | IC50 ([12]; RAW264.7, read-out: IC50, ability to reduce inflammation) [nM] | IC50 [13] [µM] | IC50 [14] [µM] | IC50 [15] [µM] | IC50 [16] [µM]
1 | C[C@H](Cc1ccc(O)c(O)c1)[C@@H](C)Cc1ccc(O)c(O)c1 [4,4’-((2R,3S)-2,3-dimethylbutane-1,4-diyl)bis(benzene-1,2-diol)] | 36.5 | – | – | – | – | – | – | – | – | – | – | – | – | – | – | – | –
2 | O=c1c(O)c(-c2cc(O)c(O)c(O)c2)oc2cc(O)cc(O)c12 [Myricetin, reference compound] | – | 27.5 ± 4.47 | 51.7 ± 4.1 | 32.6 ± 1.06 | 198 ± 43 | 106.5 ± 0.6 | 35.8 ± 4.4 | 73 ± 0.78 | 65.4 ± 1.84 | 88.9 ± 14.1 | > 200 | 70 ± 10 | 50 | 44.7 ± 2.14 | 42.8 ± 0.78 | 70.7 ± 11.6 | 29.8 ± 2.6

— paper PMC12527173, “Cytotoxic, anti-inflammatory, antioxidant, and anti-glyoxalase-I evaluation of chelating substances: In silico and in vitro study” (PLOS One, 2025)
